# Results taken from patent US9701689B2, “Substituted pyridines and pyridazines as CCR10 receptor inhibitors” (KYOWA HAKKO KIRIN CO., LTD., priority 2012, dated 2017).
# Biological target: T1, human CCR10 (Homo sapiens, UniProt P46092)
# T1 construct: expressed in transfected cells; host or cells: KJMGER8 cells (Namalwa cell-derived line), beta-estradiol-induced; hCCR10G16 cells
# T1 sequence (P46092 1-362): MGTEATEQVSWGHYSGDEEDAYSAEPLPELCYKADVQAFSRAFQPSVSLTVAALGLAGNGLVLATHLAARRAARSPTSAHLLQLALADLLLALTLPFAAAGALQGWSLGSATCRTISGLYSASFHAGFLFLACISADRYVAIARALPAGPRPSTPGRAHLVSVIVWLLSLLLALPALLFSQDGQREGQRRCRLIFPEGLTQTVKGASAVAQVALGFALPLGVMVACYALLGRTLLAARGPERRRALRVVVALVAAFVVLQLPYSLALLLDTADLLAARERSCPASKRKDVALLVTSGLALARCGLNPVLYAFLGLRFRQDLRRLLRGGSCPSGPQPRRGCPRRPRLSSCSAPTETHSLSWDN
# Test: CCR10 antagonistic effect: calcium assay of human CCR10 (CTACK-induced increase of intracellular calcium in hCCR10G16 cells)
# Format: cell-based
# Details: at a concentration of not more than 1000 nmol/L; human CCR10-expressing hCCR10G16 cells, 300 nmol/L CTACK added; read-out: inhibition of increase in the calcium ion concentration
# Procedure, shortened: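 KJMGER8-derived hCCR10G16 cells (CCR10 plus Gα16, induced 24 h with 10 nmol/L β-estradiol), Fluo-3 loaded, preincubated with compound 30 min at 37 °C. Stimulated with CTACK (300 nmol/L solution before addition); calcium read ~5 min by FDSS, max−min fluorescence; % inhibition vs control.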
row,SMILES,inhibition at up to 1 µM [%]
1,"O=C(c1cnc(S(=O)(=O)Nc2ccon2)c(F)c1NCc1ccccc1)N1CCC(c2ccc(F)cc2)CC1 [Compound 225, 4-(benzylamino)-3-fluoro-5-[4-(4-fluorophenyl)piperidine-1-carbonyl]-N-(isoxazol-3-yl)pyridine-2-sulfonamide]",≥ 50
2,"Cc1ccc(Cl)cc1Nc1c(C(=O)N2CCC3(CC2)COc2ccccc23)cnc(S(N)(=O)=O)c1Cl [Compound 323, 3-chloro-4-(5-chloro-2-methylphenylamino)-5-(2H-spiro[benzofuran-3,4′-piperidin]-1′-ylcarbonyl)pyridine-2-sulfonamide]",≥ 50
3,"Cc1cccc(Nc2c(C(=O)N3CCC(O)(c4ccc(F)cc4)CC3)cnc(S(N)(=O)=O)c2Cl)c1 [Compound 199, 3-chloro-5-[4-(4-fluorophenyl)-4-hydroxypiperidine-1-carbonyl]-4-(m-tolylamino)pyridine-2-sulfonamide]",≥ 50
4,"Cc1cc(F)ccc1Nc1cc(S(=O)(=O)Nc2nccs2)ncc1C(=O)N1CCC(c2ccc(F)cc2)CC1 [Compound 148, 4-(4-fluoro-2-methylphenylamino)-5-[4-(4-fluorophenyl)piperidine-1-carbonyl]-N-(thiazol-2-yl)pyridine-2-sulfonamide]",≥ 50
5,"Cc1cc(C)cc(Nc2cc(S(N)(=O)=O)ncc2C(=O)N2CCC(c3ccc(F)cc3)CC2)c1 [Compound 110, 4-(3,5-dimethylphenylamino)-5-[4-(4-fluorophenyl)piperidine-1-carbonyl]pyridine-2-sulfonamide]",≥ 50
6,"Cc1c(S(=O)(=O)Nc2ccon2)ncc(C(=O)N2CCC(c3ccc(F)cc3)CC2)c1Nc1cccc(F)c1Cl [Compound 272, 4-(2-chloro-3-fluorophenylamino)-5-[4-(4-fluorophenyl)piperidine-1-carbonyl]-N-(isoxazol-3-yl)-3-methylpyridine-2-sulfonamide]",≥ 50
7,"Cc1cc(F)ccc1Nc1cc(S(=O)(=O)N2CCNC2=O)ncc1C(=O)N1CCC(c2ccc(F)cc2)CC1 [Compound 144, 1-{4-(4-fluoro-2-methylphenylamino)-5-[4-(4-fluorophenyl)piperidine-1-carbonyl]pyridin-2-ylsulfonyl}imidazolidin-2-one]",≥ 50
8,"Cc1c(S(=O)(=O)Nc2ccon2)ncc(C(=O)N2CCC(c3ccc(F)cc3)CC2)c1Nc1ccc(Cl)cc1F [Compound 270, 4-(4-chloro-2-fluorophenylamino)-5-[4-(4-fluorophenyl)piperidine-1-carbonyl]-N-(isoxazol-3-yl)-3-methylpyridine-2-sulfonamide]",≥ 50
9,"COc1cc(Nc2c(C(=O)N3CCC(c4ccc(F)cc4)CC3)cnc(S(=O)(=O)Nc3ccon3)c2C)ccc1F [Compound 269, 4-(4-fluoro-3-methoxyphenylamino)-5-[4-(4-fluorophenyl)piperidine-1-carbonyl]-N-(isoxazol-3-yl)-3-methylpyridine-2-sulfonamide]",≥ 50
10,"Cc1cc(NS(=O)(=O)c2ncc(C(=O)N3CCC(c4ccc(F)cc4)CC3)c(Nc3cccc(F)c3)c2C)sn1 [Compound 267, 5-[4-(4-fluorophenyl)piperidine-1-carbonyl]-4-(3-fluorophenylamino)-3-methyl-N-(3-methylisothiazol-5-yl)pyridine-2-sulfonamide]",≥ 50
11,"Cc1cc(F)ccc1Nc1cc(S(=O)(=O)N2CCOCC2)ncc1C(=O)N1CCC(c2ccc(F)cc2)CC1 [Compound 122, [4-(4-fluoro-2-methylphenylamino)-6-(morpholinosulfonyl)pyridin-3-yl][4-(4-fluorophenyl)piperidin-1-yl]methanone]",≥ 50
12,"Cc1ccccc1Nc1c(C(=O)N2CCC(c3ccc(F)cc3)CC2)cnc(S(N)(=O)=O)c1C [Compound 331, 5-[4-(4-fluorophenyl)piperidine-1-carbonyl]-3-methyl-4-(o-tolylamino)pyridine-2-sulfonamide]",≥ 50
13,"COc1ccc(Nc2c(C(=O)N3CCC(c4ccc(F)cc4)CC3)cnc(S(N)(=O)=O)c2Cl)c(F)c1 [Compound 30, 3-chloro-4-(2-fluoro-4-methoxyphenylamino)-5-[4-(4-fluorophenyl)piperidine-1-carbonyl]pyridine-2-sulfonamide]",≥ 50
14,"Cc1ccc(Cl)cc1Nc1cc(S(N)(=O)=O)ncc1C(=O)N1CCC(c2ccc(F)cc2)CC1 [Compound 109, 4-(5-chloro-2-methylphenylamino)-5-[4-(4-fluorophenyl)piperidine-1-carbonyl]pyridine-2-sulfonamide]",≥ 50
15,"Cc1cc(F)ccc1Nc1cc(S(=O)(=O)Nc2nccn2C)ncc1C(=O)N1CCC(c2ccc(F)cc2)CC1 [Compound 149, 4-(4-fluoro-2-methylphenylamino)-5-[4-(4-fluorophenyl)piperidine-1-carbonyl]-N-(1-methyl-1H-imidazol-2-yl)pyridine-2-sulfonamide]",≥ 50
16,"CNC(=O)C1COCCN1S(=O)(=O)c1ncc(C(=O)N2CCC(c3ccc(F)cc3)CC2)c(Nc2ccc(F)cc2C)c1Cl (stereo not shown) [Compound 35, 4-{3-chloro-4-(4-fluoro-2-methylphenylamino)-5-[4-(4-fluorophenyl)piperidine-1-carbonyl]pyridin-2-ylsulfonyl}-N-methylmorpholine-3-carboxamide]",≥ 50
17,"COc1ccc(Nc2c(C(=O)N3CCC(c4ccc(F)cc4)CC3)cnc(S(N)(=O)=O)c2Cl)c(Cl)c1 [Compound 179, 3-chloro-4-(2-chloro-4-methoxyphenylamino)-5-[4-(4-fluorophenyl)piperidine-1-carbonyl]pyridine-2-sulfonamide]",≥ 50
18,"CCOC(=O)NS(=O)(=O)c1cc(Nc2ccc(F)cc2C)c(C(=O)N2CCC(c3ccc(F)cc3)CC2)cn1 [Compound 174, ethyl 4-(4-fluoro-2-methylphenylamino)-5-[4-(4-fluorophenyl)piperidine-1-carbonyl]pyridin-2-ylsulfonylcarbamate]",≥ 50
19,"Cc1ccc(Nc2cc(S(N)(=O)=O)ncc2C(=O)N2CCC(c3ccc(F)cc3)CC2)c(F)c1 [Compound 56, 4-(2-fluoro-4-methylphenylamino)-5-[4-(4-fluorophenyl)piperidine-1-carbonyl]pyridine-2-sulfonamide]",≥ 50

# Continued, values first:
row,inhibition at up to 1 µM [%],SMILES
1,≥ 50,"COc1cc(C)c(Nc2cc(S(N)(=O)=O)ncc2C(=O)N2CCC(c3ccc(F)cc3)CC2)cc1Cl [Compound 104, 4-(5-chloro-4-methoxy-2-methylphenylamino)-5-[4-(4-fluorophenyl)piperidine-1-carbonyl]pyridine-2-sulfonamide]"
2,≥ 50,"Cc1ccccc1Nc1c(C(=O)N2CC(c3ccc(F)cc3)C2)cnc(S(=O)(=O)Nc2ccon2)c1C [Compound 292, 5-[3-(4-fluorophenyl)azetidine-1-carbonyl]-N-(isoxazol-3-yl)-3-methyl-4-(o-tolylamino)pyridine-2-sulfonamide]"
3,≥ 50,"Cc1cc(F)ccc1Nc1cc(S(=O)(=O)N2CCCC2)ncc1C(=O)N1CCC(c2ccc(F)cc2)CC1 [Compound 119, [4-(4-fluoro-2-methylphenylamino)-6-(pyrrolidin-1-ylsulfonyl)pyridin-3-yl][4-(4-fluorophenyl)piperidin-1-yl]methanone]"
4,≥ 50,"Cc1ncc(Nc2c(C(=O)N3CCC(c4ccc(F)cc4)CC3)cnc(S(N)(=O)=O)c2Cl)c(C)n1 [Compound 219, 3-chloro-4-(2,4-dimethylpyrimidin-5-ylamino)-5-[4-(4-fluorophenyl)piperidine-1-carbonyl]pyridine-2-sulfonamide]"
5,≥ 50,"Cc1cc(F)ccc1Nc1cc(S(=O)(=O)NCC#N)ncc1C(=O)N1CCC(c2ccc(F)cc2)CC1 [Compound 135, N-(cyanomethyl)-4-(4-fluoro-2-methylphenylamino)-5-[4-(4-fluorophenyl)piperidine-1-carbonyl]pyridine-2-sulfonamide]"
6,≥ 50,"NS(=O)(=O)c1cc(Nc2ccc(Cl)cc2Cl)c(C(=O)N2CCC(c3ccc(F)cc3)CC2)cn1 [Compound 81, 4-(2,4-dichlorophenylamino)-5-[4-(4-fluorophenyl)piperidine-1-carbonyl]pyridine-2-sulfonamide]"
7,≥ 50,"CCCNC(=O)NS(=O)(=O)c1cc(Nc2cc(C)ccc2Cl)c(C(=O)N2CCC(c3ccc(F)cc3)CC2)cn1 [Compound 162, 4-(2-chloro-5-methylphenylamino)-5-[4-(4-fluorophenyl)piperidine-1-carbonyl]-N-(propylcarbamoyl)pyridine-2-sulfonamide]"
8,≥ 50,"COc1ccc(Nc2c(C(=O)N3CCC(c4ccc(F)cc4)CC3)cnc(S(N)(=O)=O)c2Cl)cc1F [Compound 32, 3-chloro-4-(3-fluoro-4-methoxyphenylamino)-5-[4-(4-fluorophenyl)piperidine-1-carbonyl]pyridine-2-sulfonamide]"
9,≥ 50,"Cc1cc(F)ccc1Nc1c(C(=O)N2CCC(c3ccc(F)cc3)CC2)cnc(S(N)(=O)=NC(=O)c2ccccc2)c1Cl (stereo not shown) [Compound 194, 3-chloro-4-(4-fluoro-2-methylphenylamino)-5-[4-(4-fluorophenyl)piperidine-1-carbonyl]-N′-benzoylpyridine-2-sulfonimidamide]"
